Tested on: Female mosquitoes, Aedes aegypti
Assay: Y-tube olfactometer insect repellency assay
Assay type: in vivo
Design: key to Significance (attraction vs Control): NS—not significant; *, ** - significantly different; *, ** - significantly different
Details: 98%

**Q.** For `CCN(CC)C(=O)c1cccc(C)c1` [DEET, N,N-diethyl-3-methylbenzamide], which “insect repellency, in words” value is on record?
**A.** strongest repellency

**Q.** What about the “Significance (attraction vs Control)” value (vs mineral oil control) of the same molecule?
**A.** **

— US11116210B2 (priority 2017, dated 2021)
